# Experimental data as given in PMC6135860 (Neuropsychopharmacology, 2018).
# Like-named read-outs stand apart in the source and are kept apart here.
# Experiments:
# humanized PDE4D mice [1] = assay: Novel object recognition, 24 h inter-trial interval; format: in vivo, mouse
# Procedure: (§1) The novel object recognition test was performed as described elsewhere [32, 33]. Briefly, the task procedure consists of three phases: habituation phase on day 1 for 10 min, training (T1) phase on day 2 for 5 min, and testing (T2) phase on day 3 for 5 min. The duration each animal spent exploring the objects was recorded. Time spent exploring the identical objects in T1 was recorded as a1 and a2; time spent exploring the familiar and the novel objects in T2 was recorded as “a” and “b”, respectively. The following variables were calculated: e1 = a1 + a2, e2 = a + b, the relative discrimination index d2 = (b–a)/e2.
# Novel object recognition. Mice were handled for 3-5 min for 5 days in a row. The novel object recognition test was performed in a Plexiglas open field box (L30 cm, W50 cm, H40 cm) as described elsewhere^64,65. Briefly, the task procedure consists of three phases: habituation, training (T1), and testing (T2). In the habituation phase (day 1), each animal is allowed to freely explore the apparatus for 10 min; then the animal is returned to its home cage. During the training phase (day 2), a single animal is placed in the center of the open field containing two identical objects located on the diagonal of the field, and allowed to explore for 5 min. After a retention interval after T1 of 24 h (long-term recall) or 1 h (scopolamine-impairment model), the animal was subjected to the T2 testing phase for 5 min, during which one familiar object and one novel object were presented. The arena and objects were thoroughly wiped with 70% ethanol after each trial to avoid the presence of any olfactory cues. The animals were considered to be exploring the object when directing their nose to the object at a distance of no more than 2 cm and/or touching or sniffing the object. The duration each animal spent exploring the objects was recorded. Time spent exploring the identical objects in T1 was recorded as a1 and a2; time spent exploring the familiar and the novel objects in T2 was recorded as ‘a’ and ‘b’, respectively. The following variables were calculated: e1 = a1 + a2, e2 = a + b, the relative discrimination index d2 = (b – a)/e2.
# humanized PDE4D mice [2] = assay: Y-maze spontaneous alternation test; format: in vivo, mouse
# Procedure: (§2) The test consists of a single 5 min trial, in which the mouse was allowed to explore all three arms of the Y-maze [31]. Spontaneous alternation (%) was defined as consecutive entries in three different arms, divided by the number of possible alternations (total arm entries minus 2).
# (§3) Y-maze spontaneous alternation test. The Y-maze apparatus made of matt blue Plexiglas had three identical arms (L 40 cm, W 5 cm, H 15 cm) placed at 120° from each other. The test consisted of a single 5 min trial, in which the mouse was allowed to explore all three arms of the Y-maze. The start arm was varied between animals to avoid placement bias. Spontaneous Alternation (%) was defined as consecutive entries in 3 different arms, divided by the number of possible alternations (total arm entries minus 2). Mice with less than 8 arm entries during the 5-min trial were excluded from the analysis.
# [3] = target: PDE4 binding sites in wild-type mouse brain membranes; assay: [3H]-rolipram radioligand binding to brain membranes; conditions: for Ki: wild-type
# Procedure: (§4) Mice were killed by decapitation, and the brains were immediately dissected on ice and homogenized in binding buffer using a Polytron homogenizer (Brinkman Instruments, Westbury, NY). The membrane fraction of the homogenate was obtained by centrifugation at 15,000 × g for 15 min, and resuspension of the pellet in the binding buffer.
# (§5) Mice were killed by decapitation, and the brains were immediately dissected on ice and homogenized in binding buffer (50 mM Tris-HCl, 5 mM MgCl2, pH 7.5) using a Polytron homogenizer (Brinkman Instruments, Westbury, NY). The membrane fraction of the homogenate was obtained by centrifugation at 15,000 g for 15 min, and resuspension of the pellet in the binding buffer^29.
# (§6) At the end of the incubation, reactions were stopped by adding 5 ml of the ice-cold binding buffer and rapid vacuum filtration through glass fiber filters that had been soaked in 0.3% polyethyleneimine. The filters were then washed twice with 5 ml of the ice-cold binding buffer, and discs of filter paper were collected for measurement of radioactivity by liquid scintillation counting.
# [4] = target: PDE4 binding sites in humanized PDE4D mouse brain membranes; assay: as above; conditions: for Ki: hPDE4D
# Procedure: as §4, §5, §6
# humanized PDE4D mice [5] = assay: Scopolamine-induced memory impairment in novel object recognition, 1 h inter-trial interval; format: in vivo, mouse; conditions: scopolamine 0.1 mg/kg IP 30 min prior to training
# Procedure: The novel object recognition test was performed as described elsewhere. […] The duration each animal spent exploring the objects was recorded. Time spent exploring the identical objects in T1 was recorded as a1 and a2; time spent exploring the familiar and the novel objects in T2 was recorded as “a” and “b”, respectively. The following variables were calculated: e1 = a1 + a2, e2 = a + b, the relative discrimination index d2 = (b–a)/e2.
# For the scopolamine-induced memory impairment models, a single dose of scopolamine (0.1 mg/kg, IP) was administered 30 min before the training session of the NOR. Animals treated with H-89 or vehicle were implanted with 26-gauge guide cannula unilaterally (AP −0.2 mm from Bregma, ML +1 mm from the midline, DV−2mm from skull surface) and rested for a week before any tests.
# Novel object recognition. Mice were handled for 3-5 min for 5 days in a row. The novel object recognition test was performed in a Plexiglas open field box (L30 cm, W50 cm, H40 cm) as described elsewhere^64,65. Briefly, the task procedure consists of three phases: habituation, training (T1), and testing (T2). In the habituation phase (day 1), each animal is allowed to freely explore the apparatus for 10 min; then the animal is returned to its home cage. During the training phase (day 2), a single animal is placed in the center of the open field containing two identical objects located on the diagonal of the field, and allowed to explore for 5 min. After a retention interval after T1 of 24 h (long-term recall) or 1 h (scopolamine-impairment model), the animal was subjected to the T2 testing phase for 5 min, during which one familiar object and one novel object were presented. […] The duration each animal spent exploring the objects was recorded. Time spent exploring the identical objects in T1 was recorded as a1 and a2; time spent exploring the familiar and the novel objects in T2 was recorded as ‘a’ and ‘b’, respectively. The following variables were calculated: e1 = a1 + a2, e2 = a + b, the relative discrimination index d2 = (b – a)/e2.
# wild-type mice [6] = assay: Novel object recognition, 24 h inter-trial interval; format: in vivo, mouse
# Procedure: as §1
# Novel object recognition. Mice were handled for 3-5 min for 5 days in a row. The novel object recognition test was performed in a Plexiglas open field box (L30 cm, W50 cm, H40 cm) as described elsewhere^64,65. Briefly, the task procedure consists of three phases: habituation, training (T1), and testing (T2). […] The duration each animal spent exploring the objects was recorded. Time spent exploring the identical objects in T1 was recorded as a1 and a2; time spent exploring the familiar and the novel objects in T2 was recorded as ‘a’ and ‘b’, respectively. The following variables were calculated: e1 = a1 + a2, e2 = a + b, the relative discrimination index d2 = (b – a)/e2.
# wild-type mice [7] = assay: Y-maze spontaneous alternation test; format: in vivo, mouse
# Procedure: as §2, §3
# humanized PDE4D mice [8] = conditions: 1 mg/kg IP, hPDE4D mice
# wild-type mice [9] = assay: Ketamine/xylazine anesthesia duration (surrogate of emesis); conditions: 1 mg/kg IP
# [10] = H-89 1 µg i.c.v. followed by BPN14770 0.03 mg/kg PO, hPDE4D mice
# [11] = inhibition of 2 nM [3H]-rolipram binding, read-out: One-site Ki
# [12] = inhibition of [3H]-rolipram binding, read-out: Two-site Ki1
# [13] = inhibition of [3H]-rolipram binding, read-out: Two-site Ki2
structure (smiles),measurement,setting,value
"O=S(=O)(NCCNC/C=C/c1ccc(Br)cc1)c1cccc2cnccc12 [H-89, reference compound]",effect on memory benefit of BPN14770 in NOR,humanized PDE4D mice [1]; [10],significantly antagonized the effect of BPN14770 on memory
same,effect on memory benefit of BPN14770 in Y-maze,humanized PDE4D mice [2]; [10],significantly antagonized the effect of BPN14770 on memory
COc1ccc(C2CNC(=O)C2)cc1OC1CCCC1 (centres unmarked) [[^3H]-rolipram],Kd,"[3]; wild-type mouse brain membranes, read-out: Kd of [3H]-rolipram saturation binding",3.84 nM
same,Kd,"[4]; humanized PDE4D mouse brain membranes, read-out: Kd of [3H]-rolipram saturation binding",3.72 nM
"CN1[C@@H]2C[C@@H](OC(=O)[C@H](CO)c3ccccc3)C[C@H]1[C@@H]1O[C@@H]12 [scopolamine, reference compound]",effect on short-term memory in NOR,humanized PDE4D mice [5],abolished short-term memory formation
COc1ccc(C2CNC(=O)C2)cc1OC1CCCC1 (centres unmarked) [Rolipram],MED in NOR,"humanized PDE4D mice [1]; humanized PDE4D mice, 24 h inter-trial interval",0.1 mg/kg IP
same,Ki,[3]; [11],1.99 ± 0.11 nM
same,Ki,[3]; [12],0.75 ± 0.33 nM
same,Ki,[3]; [13],34.1 ± 26.8 nM
same,MED in Y-maze,humanized PDE4D mice [2]; humanized PDE4D mice,0.1 mg/kg IP
same,MED in NOR,wild-type mice [6],0.1 mg/kg IP
same,MED in Y-maze,wild-type mice [7],0.1 mg/kg IP
same,Ki,[4]; [11],1.66 ± 0.07 nM
same,Ki,[4]; [12],0.39 ± 0.07 nM
same,Ki,[4]; [13],6.1 ± 0.79 nM
same,effect on ketamine/xylazine anesthesia duration,humanized PDE4D mice [8],significantly reduced the anesthesia duration
same,effect on ketamine/xylazine anesthesia duration,wild-type mice [9],significantly reduced the anesthesia duration
